Literature values as cited in patent publication US20240398940A1, “NOVEL LIPID NANOPARTICLES FOR DELIVERY OF NUCLEIC ACIDS” (CureVac SE, priority 2021, published 2024).
Where two headings read alike, the source gives them in different places.

What was measured:
[1] = in vivo

Molecule: Cc1c(C)c2c(c(C)c1OC(=O)CCC(=O)OCCC1CCN(CCSSCCN3CCC(CCOC(=O)CCC(=O)Oc4c(C)c(C)c5c(c4C)CCC(C)(CCCC(C)CCCC(C)CCCC(C)C)O5)CC3)CC1)CCC(C)(CCCC(C)CCCC(C)CCCC(C)C)O2 (stereo not shown) [C23, COATSOME ® SS-EC]
- charge (pH 4): positive charge
- charge (pH 7): neutral charge

Molecule: poly(2-methyl-2-oxazoline) [PMOZ]
- accumulation in tissue [1]: no significant accumulation in tissue
- excretion [1]: rapidly excreted by the kidney
